We go through twelve compounds from patent publication US20160193206A1, “BET-PROTEIN-INHIBITING DIHYDROPYRIDOPYRAZINONES” (BAYER PHARMA AKTIENGESELLSCHAFT, priority 2012, published 2016).

Test [1] concerns the target T1, BRD4 bromo domain 1 [BRD4(1)] (Homo sapiens, UniProt O60885).
T1 construct: N-terminally His6-tagged BRD4(1) (amino acids 67-152); made in house; host or cells: E. coli
The test is described as follows: BRD4(1)/acetylated peptide H4 binding assay (TR-FRET). As to conditions: inhibition of interaction between His6-tagged BRD4(1) (amino acids 67-152) and acetylated histone H4 peptide. The source says:
(§1) Protein-Protein Interaction Assay: BRD4/Acetylated Peptide H4 Binding Assay
1. Assay Description for BRD4 Bromo Domain 1 [BRD4(1)]
To assess the BRD4(1) binding strength of the substances described in this application, the ability thereof to inhibit the interaction between BRD4(1) and acetylated histone H4 in a dose-dependent manner was quantified.
(§2) For this purpose, a time-resolved fluorescence resonance energy transfer (TR-FRET) assay was used, which measures the binding between N-terminally His6-tagged BRD4(1) (amino acids 67-152) and a synthetic acetylated histone H4 (Ac-H4) peptide with sequence GRGK(Ac)GGK(Ac)GLGK(Ac)GGAK(Ac)RHGSGSK-biotin. The recombinant BRD4(1) protein produced in-house according to Filippakopoulos et al., Cell, 2012, 149:214-231 was expressed in E. coli and purified by means of (Ni-NTA) affinity and (Sephadex G-75) size exclusion chromatography. The Ac-H4 peptide can be purchased, for example, from Biosyntan (Berlin, Germany).
(§3) In the assay, typically 11 different concentrations of each substance (0.1 nM, 0.33 nM, 1.1 nM, 3.8 nM, 13 nM, 44 nM, 0.15 μM, 0.51 μM, 1.7 μM, 5.9 μM and 20 μM) were analysed as duplicates on the same microtitre plate. For this purpose, 100-fold concentrated solutions in DMSO were prepared by serial dilutions (1:3.4) of a 2 mM stock solution into a clear, 384-well microtitre plate (Greiner Bio-One, Frickenhausen, Germany). From this, 50 nl were transferred into a black test plate (Greiner Bio-One, Frickenhausen, Germany). The test was started by the addition of 2 μl of a 2.5-fold concentrated BRD4(1) solution (final concentration typically 10 nM in the 5 μl of reaction volume) in aqueous assay buffer [50 mM HEPES pH 7.5, 50 mM sodium chloride (NaCl), 0.25 mM CHAPS and 0.05% serum albumin (BSA)] to the substances in the test plate. This was followed by a 10-minute incubation step at 22° C. for the pre-equilibration of putative complexes between BRD4(1) and the substances.
(§4) The mixture was then incubated in the dark at 22° C. for one hour and then at 4° C. for at least 3 hours and for no longer than overnight. The formation of BRD4(1)/Ac-H4 complexes was determined by the measurement of the resonance energy transfer from the streptavidin-Eu cryptate to the anti-6His-XL665 antibody present in the reaction. For this purpose, the fluorescence emission was measured at 620 nm and 665 nm after excitation at 330-350 nm in a TR-FRET measuring instrument, for example a Rubystar or Pherastar (both from BMG Lab Technologies, Offenburg, Germany) or a Viewlux (Perkin-Elmer). The ratio of the emissions at 665 nm and at 622 nm was taken as an indicator of the amount of BRD4(1)/Ac-H4 complexes formed.
The data (ratios) obtained were normalized, with 0% inhibition corresponding to the mean from the measurements for a set of controls (typically 32 data points) in which all the reagents were present. In these, in place of test substances, 50 nl of DMSO (100%) were used. Inhibition of 100% corresponded to the mean from the measurements for a set of controls (typically 32 data points) in which all the reagents except BRD4(1) were present. The IC50 was determined by regression analysis based on a 4-parameter equation (minimum, maximum, IC50, Hill; Y=max+(min−max)/(1+(X/IC50)Hill).
For orientation: In TR-FRET formats the signal depends on donor and acceptor labels being close together.

The target of test [2] is T2, BRD4 bromo domain 2 [BRD4(2)] (Homo sapiens, UniProt O60885).
T2 construct: N-terminally His6-tagged BRD4(2) (amino acids 357-445); made in house; host or cells: E. coli
The test is described as follows: BRD4(2)/acetylated peptide H4 binding assay (TR-FRET). As to conditions: inhibition of interaction between His6-tagged BRD4(2) (amino acids 357-445) and acetylated histone H4 peptide.
Text: as §1
2. Assay Description for BRD4 Bromo Domain 2 [BRD4(2)]
To assess the BRD4(2) binding strength of the substances described in this application, the ability thereof to inhibit the interaction between BRD4(2) and acetylated histone H4 in a dose-dependent manner was quantified.
as §2, with “BRD4(2)” for “BRD4(1)”, “357-445)” for “67-152)”, “SGRGK(Ac)GGK(Ac)GLGK(Ac)GGAK(Ac)RHRKVLRDNGSGSK-biotin.” for “GRGK(Ac)GGK(Ac)GLGK(Ac)GGAK(Ac)RHGSGSK-biotin.”
as §3, with “concentrated BRD4(2)” for “concentrated BRD4(1)”, “typically 100” for “typically 10”, “chloride (NaCl); 50 mM potassium fluoride (KF);” for “chloride (NaCl),”, “between BRD4(2)” for “between BRD4(1)”
as §4, with “BRD4(2)/Ac-H4” for “BRD4(1)/Ac-H4”, “chelate” for “cryptate”
The data (ratios) obtained were normalized, with 0% inhibition corresponding to the mean from the measurements for a set of controls (typically 32 data points) in which all the reagents were present. In these, in place of test substances, 50 nl of DMSO (100%) were used. Inhibition of 100% corresponded to the mean from the measurements for a set of controls (typically 32 data points) in which all the reagents except BRD4(2) were present. The IC50 was determined by regression analysis based on a 4-parameter equation (minimum, maximum, IC50, Hill; Y=max+(min−max)/(1+(X/IC50)Hill).

For `COc1cc(C(=O)N2CCN(C(C)C)CC2)ccc1Nc1ccc2c(n1)N(C1CCCCCC1)[C@H](C)C(=O)N2C` [Example 40, (3R)-4-Cycloheptyl-6-[(2-methoxy-4-{[4-(propan-2-yl)piperazin-1-yl]carbonyl}phenyl)amino]-1,3-dimethyl-3,4-dihydropyrido[2,3-b]pyrazin-2(1H)-one], the half-inhibitory concentration (IC50) was 0.295 µM in test [1] and 0.161 µM in test [2].
For `COc1cc(C(=O)N2CCC(F)CC2)ccc1Nc1ccc2c(n1)N(Cc1ccccc1)[C@H](C)C(=O)N2C` [Example 43, (3R)-4-Benzyl-6-({4-[(4-fluoropiperidin-1-yl)carbonyl]-2-methoxyphenyl}amino)-1,3-dimethyl-3,4-dihydropyrido[2,3-b]pyrazin-2(1H)-one], the IC50 in test [1] came to 0.218 µM; in test [2] it was 0.102 µM.
In the same order, the values of `C[C@@H]1C(=O)N(C)c2ccc(Nc3ccc(C(=O)N[C@H]4CC[C@H](N5CCN(CC6CC6)CC5)CC4)cc3)nc2N1C1CCCCCC1` [Example 44, 4-{[(3R)-4-Cycloheptyl-1,3-dimethyl-2-oxo-1,2,3,4-tetrahydropyrido[2,3-b]pyrazin-6-yl]amino}-N-{trans-4-[4-(cyclopropylmethyl)piperazin-1-yl]cyclohexyl}benzamide] are 0.368 µM and 0.283 µM.
For `COc1cc(C(=O)NCc2ccccn2)ccc1Nc1ccc2c(n1)N(C1CCOCC1)[C@H](C)C(=O)N2C` [Example 47, 4-{[(3R)-1,3-Dimethyl-2-oxo-4-(tetrahydro-2H-pyran-4-yl)-1,2,3,4-tetrahydropyrido[2,3-b]pyrazin-6-yl]amino}-3-methoxy-N-(pyridin-2-ylmethyl)benzamide], in that order: 0.201 µM and 0.112 µM.
Consider `C[C@@H]1C(=O)N(C)c2ccc(Nc3ccc(C(=O)NCCc4cccnc4)cc3)nc2N1C1CCOCC1` [Example 49, 4-{[(3R)-1,3-Dimethyl-2-oxo-4-(tetrahydro-2H-pyran-4-yl)-1,2,3,4-tetrahydropyrido[2,3-b]pyrazin-6-yl]amino}-N-[2-(pyridin-3-yl)ethyl]benzamide], for which the half-maximal inhibitory concentration (IC50) in test [1] was determined as 0.114 µM; in test [2], 0.317 µM.
In the case of `C[C@@H]1C(=O)N(C)c2ccc(Nc3ccc(C(=O)NC4CCC(N5CCC(F)(F)CC5)CC4)cc3)nc2N1C1CCOCC1` (stereo partly drawn) [Example 52], the concentration for half-maximal inhibition (IC50) was determined as 0.166 µM in test [1] and 0.299 µM in test [2].
In the same order, the values of `Cc1cc(C(=O)NC2CCN(C)CC2)ccc1Nc1ccc2c(n1)N(C1CCOCC1)[C@H](C)C(=O)N2C` [Example 54, 4-{[(3R)-1,3-Dimethyl-2-oxo-4-(tetrahydro-2H-pyran-4-yl)-1,2,3,4-tetrahydropyrido[2,3-b]pyrazin-6-yl]amino}-3-methyl-N-(1-methylpiperidin-4-yl)benzamide] are 0.357 µM and 0.354 µM.
Consider `C[C@@H]1C(=O)N(C)c2ccc(Nc3ccc(C(=O)N4CCN(C)CC4)cc3)nc2N1C1CCOCC1` [Example 56, (3R)-1,3-Dimethyl-6-({4-[(4-methylpiperazin-1-yl)carbonyl]phenyl}amino)-4-(tetrahydro-2H-pyran-4-yl)-3,4-dihydropyrido[2,3-b]pyrazin-2(1H)-one], for which the IC50 turned out to be 0.139 µM in test [1] and 0.242 µM in test [2].
In the same order, the values of `COc1cc(C(=O)N[C@H]2CC[C@H](NC(=O)OC(C)(C)C)CC2)ccc1Nc1ccc2c(n1)N(C1CCOCC1)[C@H](C)C(=O)N2C` [Example 59, tert-Butyl {trans-4-[(4-{[(3R)-1,3-dimethyl-2-oxo-4-(tetrahydro-2H-pyran-4-yl)-1,2,3,4-tetrahydropyrido[2,3-b]pyrazin-6-yl]amino}-3-methoxybenzoyl)amino]cyclohexyl}carbamate] are 0.533 µM and 0.323 µM.
In the same order, the values of `COc1cc(C(=O)NC2CCC(O)CC2)ccc1Nc1ccc2c(n1)N(C1CCOCC1)[C@H](C)C(=O)N2C` (stereo partly drawn) [Example 60, 4-{[(3R)-1,3-Dimethyl-2-oxo-4-(tetrahydro-2H-pyran-4-yl)-1,2,3,4-tetrahydropyrido[2,3-b]pyrazin-6-yl]amino}-N-(4-hydroxycyclohexyl)-3-methoxybenzamide] are 0.339 µM and 0.212 µM.
On to `Cc1cc(C(=O)NCCN(C)C)ccc1Nc1ccc2c(n1)N(C1CCOCC1)[C@H](C)C(=O)N2C` [Example 63, N-[2-(Dimethylamino)ethyl]-4-{[(3R)-1,3-dimethyl-2-oxo-4-(tetrahydro-2H-pyran-4-yl)-1,2,3,4-tetrahydropyrido[2,3-b]pyrazin-6-yl]amino}-3-methylbenzamide], for which the IC50 in test [1] came to 0.262 µM; in test [2] it was 0.206 µM.
For `COc1cc(C(=O)N2CCN(C3CC3)CC2)ccc1Nc1ccc2c(n1)N(C1CCOCC1)[C@H](C)C(=O)N2C` [Example 65, (3R)-6-({4-[(4-Cyclopropylpiperazin-1-yl)carbonyl]-2-methoxyphenyl}amino)-1,3-dimethyl-4-(tetrahydro-2H-pyran-4-yl)-3,4-dihydropyrido[2,3-b]pyrazin-2(1H)-one], in that order: 0.234 µM and 0.12 µM.

Broadly, the IC50 is the concentration that inhibits the measured activity by half.
